Bounds are passed on as bounds.

We go through four compounds from patent publication US20080025960A1, “Detergents with stabilized enzyme systems” (priority 2006, published 2008).

Assay [1] deals with T1, glucose oxidase (Aspergillus niger, UniProt P13006).
T1 construct: purchased Genencor OXYGO L-5000
The experiment in a line: Premature hydrogen peroxide generation by glucose oxidase in control buffer or AATCC liquid detergent stock (as is) with glucose and inhibitor, dipsticks. To be noted: 1 M inhibitor; same methods as Examples 1-4. It is filed as biochemical. The text has this:
In this Example, experiments conducted to assess the stabilization of glucose oxidase in the presence of its substrate (i.e., glucose) and an inhibitor (i.e., sodium hydrogen sulfite) is described. In these experiments, AATCC standard detergent (American Association of Textile Chemists and Colorists Heavy Duty Liquid detergent version 2003 without brightener; key components include linear alkane sulfonate, alcohol ethoxylate, propanediol, citric acid, fatty acid, castic soda and water; purchased from TestFabrics) was used.
In these experiments, 100 mM Tris pH 8.3, with 0.005% TWEEN®-100 surfactant used as a positive control. […] Three two-ml tubes were weighed with 0.990 g of AATCC detergent (lot # 01282004) and another three tubes with 0.990 g of control buffer. Then, 90 mg (500 mM) of glucose substrate were added to all of the tubes. Next, 100, 50, and 10 mM sodium hydrogen sulfite (MW 106.1) were added to each tube respectively, including the control buffer and AATCC detergent control. All of the tubes were placed on a rotary plate for an hour to allow good mixing and solubilization of glucose into the detergent. Then, 500 PPM (0.5 mg, 14.88 ul) glucose oxidase (OXYGO™ L-5000, 5379 U/ml; 33.6 mg/ml; Genencor) was added to six 2-ml tubes (three with glucose/bisulfite containing control buffers and three with glucose/bisulfite containing AATCC detergent). All of the tubes were then set on the rotary plate (60 rpm) at room temperature. Hydrogen peroxide production was measured using dipsticks (peroxidase/ABTS—Baker Testrips;Baker) at various times—t=0+minutes, 12 minutes, and 30 minutes. The tube containing 100 mM bisulfite with glucose, glucose oxidase in liquid detergent was further monitored for premature generation of hydrogen peroxide further over a period of time starting at 1 hr, 12 hr, 7 days, 12 days and up to 21 days.
In these experiments, 100 mM Tris pH 8.3, with 0.005% TWEEN®-100 surfactant was used as a positive control. […] Three two-ml tubes were weighed with 0.990 g of AATCC detergent (lot # 01282004) and another three tubes with 0.990 g of control buffer.
Three two-ml tubes containing 0.990 g of AATCC detergent (lot # 01282004) and another three tubes with 0.990 g of control buffer were weighed. Then, 90 mg (500 mM) glucose substrate was added to each tube. Then, 100, 50, and 10 mM sodium metabisulfite were added to each tube respectively (i.e., both control buffer and AATCC detergent-containing tubes). All of the tubes were placed on a rotary plate for an hour to allow good mixing and solubilization of glucose into the detergent. Next, 500 PPM (0.5 mg, 14.88 ul) glucose oxidase (OXYGO™ L-5000, 5379 U/ml; 33.6 mg/ml; Genencor) was added to six 2-ml tubes (three with glucose/metabisulfite containing control buffers and three with glucose/metabisulfite containing AATCC detergent). All of the tubes were then set on the rotary plate (60 rpm) at room temperature. H2O2 production was measured using dipsticks (peroxidase/ABTS), as described in Examples 1 and 2, for t=0+ minutes, 12 minutes, and 30 minutes. The tube containing 100 mM bisulfite with glucose, glucose oxidase in liquid detergent was further monitored for premature generation of hydrogen peroxide further over a period of time starting at 1 hr, 12 hr, 7 days, 12 days and up to 21 days.

In assay [2] the target is T1, glucose oxidase. Described as above. To be noted: 2 M hydroxylamine; detergent containing 1 M glucose and 500 PPM glucose oxidase. It counts as biochemical.
Assay [3] addresses T2, alcohol oxidase (Pichia angusta, UniProt P04841).
T2 construct: purchased Sigma
As to the kind of experiment: Hydrogen peroxide concentration in wash liquor with alcohol oxidase, ethanol and inhibitor. It counts as biochemical, Hansunela sp. To be noted: 2 mM ethanol, 0.02U enzyme, 0.2 mM inhibitor. The procedure: The stability and activity of the alcohol oxidase enzyme (described in Example 5) in AATCC liquid detergent (Sigma, 100 U/ml. 22 U/mg, 13 mg total solid in vial, 7.7 U/mg solid) was tested upon dilution into wash liquor. In these experiments, 10 U of alcohol oxidase were used in liquid detergent stock for each experiment. In addition, 1M ethanol (substrate) was mixed in detergent (46 mg ethanol in 990 mg detergent). […] In these experiments, 10 ul of final detergent mix or control mix were added to 5 ml of wash liquor. The same methods as described in Examples 2 and 4 were used in these experiments.

In assay [4] the target is T2, alcohol oxidase. As to the kind of experiment: Hydrogen peroxide concentration in control buffer or AATCC liquid detergent stock (as is) with alcohol oxidase, ethanol and inhibitor. It is filed as biochemical, Hansunela sp. To be noted: for H2O2 PPM: as is, 1 M ethanol, 10U enzyme, 100 mM inhibitor. Here is the method: In these experiments, the stability of alcohol oxidase obtained from Hansunela sp., (100 U/ml. 22 U/mg, 13 mg total solid in vial, 7.7 U/mg solid; Sigma) in AATCC liquid detergent was tested. In these experiments, 10 U of the alcohol oxidase were used in liquid detergent stock for each experiment. For testing, 1M ethanol was mixed into the detergent (46 mg ethanol in 990 mg detergent). […] The experiments were conducted as described above in Examples 1 and 3.

Assay [5] has as its target T3, choline oxidase (Arthrobacter globiformis, UniProt Q7X2H8).
T3 sequence (Q7X2H8 1-546): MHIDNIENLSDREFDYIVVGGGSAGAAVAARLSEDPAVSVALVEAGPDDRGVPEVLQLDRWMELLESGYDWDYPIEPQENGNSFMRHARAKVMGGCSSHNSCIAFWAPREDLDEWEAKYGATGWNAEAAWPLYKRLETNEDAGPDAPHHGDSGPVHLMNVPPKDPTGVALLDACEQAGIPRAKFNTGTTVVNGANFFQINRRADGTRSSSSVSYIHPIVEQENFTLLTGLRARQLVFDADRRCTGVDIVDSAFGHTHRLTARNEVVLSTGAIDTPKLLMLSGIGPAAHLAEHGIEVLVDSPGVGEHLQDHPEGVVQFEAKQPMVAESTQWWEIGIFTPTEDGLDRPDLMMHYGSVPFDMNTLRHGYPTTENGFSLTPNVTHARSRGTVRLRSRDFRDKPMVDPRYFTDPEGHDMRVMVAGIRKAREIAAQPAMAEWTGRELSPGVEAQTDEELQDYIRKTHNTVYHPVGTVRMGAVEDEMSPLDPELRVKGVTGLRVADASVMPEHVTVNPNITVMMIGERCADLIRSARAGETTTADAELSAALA
As to the kind of experiment: H2O2 in control buffer or AATCC liquid detergent stock with choline oxidase, choline and inhibitor. It is filed as biochemical. The settings on record: for H2O2 PPM: 1 M choline. Here is the method:
In this Example, experiments conducted to assess the stabilization of choline oxidase in the presence of its substrate (i.e., choline) and an inhibitor (i.e., sodium bisulfite and 2-amino,2-methyl,1-propanol) is described. In these experiments, AATCC standard detergent was used.
(§1) The experiments were conducted as described in Example 1. Choline oxidase produces two moles of H2O2 per mole of choline. The results obtained in these experiments confirmed that choline oxidase was stable in AATCC detergent over 24 hour period tested in presence of choline and inhibitors. […] Upon dilution in wash liquor, detergent containing choline oxidase, choline chloride and an inhibitor (e.g., sodium hydrogen sulfite or 2-amino,2-methyl,1-propanol) produced H2O2 over time, as indicated in Table 5.

Assay [6] concerns the target T3, choline oxidase. As to the kind of experiment: H2O2 in wash liquor with choline oxidase, choline chloride and inhibitor. The settings on record: 2 mM choline chloride, 0.02U enzyme, 0.4 mM AMP inhibitor. It counts as biochemical. Here is the method: as §1

T1 sequence (P13006 17-605): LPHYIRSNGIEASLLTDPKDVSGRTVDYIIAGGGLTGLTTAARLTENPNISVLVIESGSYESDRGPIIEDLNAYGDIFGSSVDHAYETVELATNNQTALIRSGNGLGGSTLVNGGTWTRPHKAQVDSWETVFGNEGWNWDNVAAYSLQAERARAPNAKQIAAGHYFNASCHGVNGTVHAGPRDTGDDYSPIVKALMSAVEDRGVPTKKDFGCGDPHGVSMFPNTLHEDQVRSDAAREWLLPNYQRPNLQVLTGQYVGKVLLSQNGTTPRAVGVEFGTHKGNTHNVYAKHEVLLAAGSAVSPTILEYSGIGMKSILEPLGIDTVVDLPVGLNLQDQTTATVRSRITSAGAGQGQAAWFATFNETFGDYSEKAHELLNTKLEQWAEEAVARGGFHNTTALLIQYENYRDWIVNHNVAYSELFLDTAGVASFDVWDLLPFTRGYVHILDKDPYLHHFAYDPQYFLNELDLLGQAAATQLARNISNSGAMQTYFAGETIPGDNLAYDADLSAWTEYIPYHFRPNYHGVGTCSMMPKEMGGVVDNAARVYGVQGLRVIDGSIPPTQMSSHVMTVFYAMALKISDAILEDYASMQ
T2 sequence (P04841 whole entry): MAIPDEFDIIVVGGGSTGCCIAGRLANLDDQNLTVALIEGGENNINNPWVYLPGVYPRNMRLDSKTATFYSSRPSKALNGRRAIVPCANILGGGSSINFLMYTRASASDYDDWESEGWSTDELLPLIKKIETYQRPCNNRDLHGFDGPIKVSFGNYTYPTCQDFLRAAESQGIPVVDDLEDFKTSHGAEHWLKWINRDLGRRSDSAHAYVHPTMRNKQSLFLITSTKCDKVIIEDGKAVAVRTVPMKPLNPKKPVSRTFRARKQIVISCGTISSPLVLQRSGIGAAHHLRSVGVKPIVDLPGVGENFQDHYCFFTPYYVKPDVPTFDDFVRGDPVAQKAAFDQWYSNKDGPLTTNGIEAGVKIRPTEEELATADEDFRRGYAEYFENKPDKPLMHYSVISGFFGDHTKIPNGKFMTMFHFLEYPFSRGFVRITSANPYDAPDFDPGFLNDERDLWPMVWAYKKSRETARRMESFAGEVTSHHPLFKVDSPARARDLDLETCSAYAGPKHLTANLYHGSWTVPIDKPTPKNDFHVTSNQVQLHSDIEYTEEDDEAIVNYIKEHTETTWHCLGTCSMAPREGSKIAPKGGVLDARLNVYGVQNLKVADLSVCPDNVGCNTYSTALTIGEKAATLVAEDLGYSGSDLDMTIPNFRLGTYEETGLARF

With `[F-].[Na+]` [sodium fluoride], the glucose oxidase inhibition entry in assay [1] is listed as “small degree of glucose oxidase inhibition”.

As to `NO` [hydroxylamine], the “stabilization of premature hydrogen peroxide generation” value in assay [2] was “can stabilize premature hydrogen peroxide generation”.

For `O=S(O)(O)=S` [sodium thiosulfate], in assay [1], the glucose oxidase inhibition entry is “small degree of glucose oxidase inhibition”. Besides, the “H2O2 PPM” value in assay [3] (AATCC Detergent, T = 0+) is given as 0 PPM; in assay [3] (AATCC Detergent, T = 30 min) it was 0 PPM; in assay [3] (AATCC Detergent, T = 120 min), >3 (thiosulfate) PPM; in assay [3] (Control Buffer, T = 0+), 0 PPM; in assay [3] (Control Buffer, T = 30 min) it was 0 PPM; in assay [4] (AATCC Detergent, T = 0+), 3 PPM. The “H2O2 PPM” value in assay [4] (AATCC Detergent, T = 120 min) was “(>10--thiosulfate) PPM”; in assay [4] (Control Buffer, T = 0+), “˜10 PPM”; in assay [4] (Control Buffer, T = 120 min), 0 PPM. In addition, the “character of alcohol oxidase inhibition” value in assay [4] (100 mM concentration tested) was “week inhibitor”.

For `CC(C)(N)CO` [AMP, 2-amino,2-methyl,1-propanol], the “H2O2 PPM” value in assay [5] (AATCC Detergent, T = 0+, 1U enzyme, 100 mM AMP inhibitor) is on record as 0 PPM; in assay [5] (AATCC Detergent, T = 12 min, 1U enzyme, 100 mM AMP inhibitor), 1 PPM; in assay [5] (AATCC Detergent, T = 12 min, 1U or 10U enzyme, 200 mM AMP (pH ~9.3)), 0 PPM; in assay [5] (Control Buffer, T = 0+, 1U enzyme, 100 mM AMP inhibitor), 0 PPM; in assay [5] (Control Buffer, T = 12 min, 1U enzyme, 100 mM AMP inhibitor), 1 PPM; in assay [5] (Control Buffer, T = 12 min, 1U or 10U enzyme, 200 mM AMP (pH ~9.3)) it was 0 PPM. Moreover, the “H2O2 PPM” value in assay [6] (AATCC Detergent, T = 0+) was determined as 1 PPM; in assay [6] (AATCC Detergent, T = 12 min) it was 3 PPM; in assay [6] (AATCC Detergent, T = 30 min) it was 3 PPM; in assay [6] (AATCC Detergent, T = 60 min), 10 PPM; in assay [6] (Control Buffer, T = 0+), 1 PPM; in assay [6] (Control Buffer, T = 12 min) it was 3 PPM. Besides, the “H2O2 PPM” value in assay [6] (Control Buffer, T = 30 min) stood at 3 PPM; in assay [6] (Control Buffer, T = 60 min), 10 PPM. In assay [5] (AMP used at 200 mM), the “premature regeneration of H2O2 in detergent” value is listed as “stops premature regeneration of H2O2”. The “character of choline oxidase inhibition” value in assay [5] (sodium hydrogen sulfite at 100 mM concentration tested) is reported as “reversible inhibitor”.
